According to patent US12458605B2, “Lipid nanoparticle” (National University Corporation Hokkaido University, priority 2020, dated 2025):

Key:
[1] = Storage stability of FlucmRNA-loaded LNP at −80, 5, 25 and 40° C.; type: physicochemical; details: for period for which quality remained good, −80° C.: maximum storage period 1 week; for quality at production (storage stability criteria): criteria: PDI 0.2 or less, encapsulation 80% or more
Experimental: Lipid nanoparticles were allowed to stand at each temperature of −80° C., 5° C., 25° C., and 40° C., and after keeping for each period of time, average particle size, PDI, and nucleic acid encapsulation rate were measured. Lipid nanoparticles which satisfy following all three conditions were defined that the quality was remained well: the average particle size is maintained within +/−20 nm based on the date of LNP preparation; PDI remains high uniformity with a value of 0.2 or less; and the nucleic acid encapsulation rate is also maintained at 80% or more. As a result of measuring average particle size, PDI, and nucleic acid encapsulation rate after each FlucmRNA-loaded lipid nanoparticle was allowed to stand at −80° C., 5° C., 25° C., and 40° C. respectively and kept for each period of time, periods of time defined as the quality of the lipid nanoparticles was remained well are shown in Tables 13 and 14. The lipid nanoparticles which remain in good quality with standing at 5° C. for one week or more can be evaluated as having excellent stability.

liver = experiment: In vivo Fluc activity of FlucmRNA-loaded LNP by in vivo imaging, liver; details: Balb/c mice, FlucmRNA-loaded LNP i.v. 0.1 mg mRNA/kg, 6 hours
Experimental: (§1) Then, each prepared FlucmRNA-loaded lipid nanoparticles were administered to Balb/c mice (Charles River Laboratories Japan, Inc., 7 weeks old, female) and in vivo gene expression activity was examined. Specifically, each FlucmRNA-loaded lipid nanoparticles were intravenously administered to Balb/c mice at 0.1 mg mRNA/kg, and Fluc activities in the liver and spleen at 6 hours later were measured. Fluc activity was measured by in vivo imaging system (Perkin Elmer, IVIS200) after administration of VivoGlo Luciferin, In Vivo Grade (Promega, P1041) dissolved with PBS to 15 mg/mL, via tail vein at a dose of 1.5 mg per mouse. The unit of Fluc activity is the emission intensity per unit area (Avg Radiance [p/s/cm2/sr]) at the maximum emission wavelength of about 560 nm. The results of measurement of the Fluc activity (Avg Radiance [p/s/cm2/sr]) in the liver and spleen of mice administered each FlucmRNA-loaded lipid nanoparticles are shown in Tables 5-7.

[2] = Average particle size (ζ-Average) and PDI by dynamic light scattering (Zetasizer Nano ZSP); type: physicochemical
Experimental: The average particle size (ζ-Average) and PDI in PBS(−) of lipid nanoparticles were measured using “Zetasizer Nano ZSP”, an analyzer utilizing dynamic light scattering (manufactured by Malvern).
Measurement of average particle size and PDI of the lipid nanoparticles were carried out with the same method as the measurement of average particle size of mRNA-LNP.
The average particle size (ζ-Average) and PDI in PBS (−) of lipid nanoparticles were measured using “Zetasizer Nano ZSP”, an analyzer utilizing dynamic light scattering (manufactured by Malvern).

spleen = experiment: In vivo Fluc activity of FlucmRNA-loaded LNP by in vivo imaging, spleen; details: Balb/c mice, 6 hours; for Fluc Activity in spleen: FlucmRNA-loaded LNP i.v. 0.1 mg mRNA/kg; for Fluc activity in the spleen, compared with CL4F6: 0.1 mg mRNA/kg, versus LNP comprising CL4F6 (Tables 5 and 6)
Experimental: as §1

F7 = experiment: In vivo F7 knockdown, plasma F7 enzyme activity (BIOPHEN FVII), Balb/c mice; details: for F7 enzyme activity (%) / F7 enzyme activity (Ratio using MC3 as 1): i.v. 0.025 mg siRNA/kg, plasma at 24 hours; for F7 enzyme activity (%): untreated mice as 100%; for F7 enzyme activity (Ratio using MC3 as 1): relative plasma F7 activity of MC3 LNP as 1
Experimental: Then, each prepared F7siRNA-loaded lipid nanoparticles were administered to Balb/c mice (Charles River Laboratories Japan, Inc., 5 weeks old, female) and in vivo F7 knockdown activity was examined. Specifically, BALB/c mice were intravenously administered F7siRNA-loaded lipid nanoparticles comprising the lipids described in Table 9 at 0.025 mg siRNA/kg and F7siRNA-loaded lipid nanoparticles comprising the lipids described in Tables 10 and 11 at 0.025 mg siRNA/kg, and the plasma F7 enzyme activity at 24 hours later was measured using BIOPHEN FVII (Biophen, A221304). Relative plasma F7 enzyme activity (%) of mice administered each F7siRNA-loaded lipid nanoparticles was calculated using plasma F7 enzyme activity of untreated mice as 100%. Furthermore, the ratio was calculated using the relative plasma F7 enzyme activity (%) of mice administered MC3-comprising F7siRNA-loaded lipid nanoparticles as 1. The results of measurement of CL4F6 derivative nanoparticles are shown in Tables 9 and 10, and results of measurement of CL15F6 derivative nanoparticles in Table 11.

[3] = siRNA/mRNA encapsulation rate by Ribogreen reagent (section IV); type: physicochemical; details: for % siRNA encapsulation: F7siRNA-loaded LNP, 50:10:38.5:1.5, N/P ratio 6; for % mRNA encapsulation: FlucmRNA-loaded LNP, 50:10:38.5:1.5
Experimental: The encapsulation rates of siRNA and mRNA of lipid nanoparticles were measured with Ribogreen reagent. A solution diluted with TE buffer solution was arranged so that lipid nanoparticle concentration as nucleic acid concentration to be 8 μg/mL, as a solution for measuring nanoparticle surface nucleic acid concentration. In addition, a solution for measuring total nucleic acid concentration was arranged so that lipid nanoparticle concentration as nucleic acid concentration to be 1.2 μg/mL, which is 1% (w/w) concentration of X-triton100, by adding X-triton100. For 100 μL of each solution, 100 μL of Ribogreen (registered trademark) reagent (Quant-iT™ RiboGreen™ RNA Reagent, manufactured by Thermofisher Scientific) was mixed well in the wells of 96-well microplate (black, made of polystyrene, flat bottom, manufactured by Corning), and the fluorescence intensity at an excitation wavelength of 485 nm and a measurement wavelength of 528 nm was measured with a microplate reader. Nucleic acid concentration was calculated by calibration curve created by measuring the fluorescence intensity of nucleic acid solution containing 1% X-triton100 (nucleic acid concentration: 0-2.5 μg/mL) as same as aforementioned. Nucleic acid encapsulation rate of each lipid nanoparticle was calculated by the following formula: Encapsulation rate %=(nucleic acid concentration in solution for measuring total nucleic acid concentration (μg/mL)−nucleic acid concentration in solution for measuring nanoparticle surface nucleic acid concentration (μg/mL))/nucleic acid concentration in solution for measuring total nucleic acid concentration (μg/mL)×100. <Results>
The encapsulation rate of mRNA of lipid nanoparticles was measured using Ribogreen (manufactured by life technologies).

[4] = F7siRNA-loaded LNP, 50:10:38.5:1.5, N/P ratio 6
[5] = FlucmRNA-loaded LNP, 50:10:38.5:1.5
[6] = FlucmRNA-loaded LNP, lipid:DSPC:cholesterol:DMG-PEG2K 50:10:38.5:1.5

| Compound | period for which quality remained good, −80° C. [1] | period for which quality remained good, 5° C. ([1]; maximum storage period 5 weeks) | period for which quality remained good, 25° C. ([1]; maximum storage period 5 weeks) | period for which quality remained good, 40° C. (weeks) ([1]; maximum storage period 5 weeks) | quality at production (storage stability criteria) [1] | Fluc Activity in liver (liver) | PDI [2, 4] | ζ-Average (nm) [2, 4] | PDI [2, 5] | ζ-Average (nm) [2, 6] | Fluc Activity in spleen (spleen) | F7 enzyme activity (%) (F7) | % siRNA encapsulation [3] | % mRNA encapsulation [3] | period for which quality remained good, 40° C. ([1]; maximum storage period 5 weeks) | period for which quality remained good, 40° C. (days) ([1]; maximum storage period 5 weeks) | Fluc activity in the spleen, compared with CL4F6 (spleen) | knockdown activity, compared with MC3 (F7; F7siRNA-loaded LNP, versus LNP comprising MC3) | F7 enzyme activity (Ratio using MC3 as 1) (F7) |
| --- | --- | --- | --- | --- | --- | --- | --- | --- | --- | --- | --- | --- | --- | --- | --- | --- | --- | --- | --- |
| 7-hydroxy-7-(4-((1-methylpiperidine-4-carbonyl)oxy)butyl)tridecan-1,13-diyl bis(2-(4,4-dimethylpentan-2-yl)-5,7,7-trimethyloctanoate [CL15G6] | 1 week | 5 weeks | 5 weeks | 5 weeks |  |  |  |  |  |  |  |  |  |  |  |  |  |  |  |
| CCCCC(CC)C(=O)OCCCCCCC(O)(CCCCCCOC(=O)C(CC)CCCC)CCCCN(CCC)CCC (centres unmarked) [CL4F 6-2] |  |  |  |  | Does not meet the criteria for “good” at production | 1.34E+03 Avg Radiance [p/s/cm2/sr] | 0.298 | 274.50 nm | 0.069 | 218.20 nm | 1.24E+05 Avg Radiance [p/s/cm2/sr] | 54.8% | 56.9% | 41.4% |  |  |  |  |  |
| CCCCC(CCCC)C(=O)OCCCCCCC(O)(CCCCCCOC(=O)C(CCCC)CCCC)CCCCN(CCC)CCC [CL4F 6-4] | 0 week | 5 weeks | 5 weeks |  |  | 2.17E+05 Avg Radiance [p/s/cm2/sr] |  |  | 0.023 | 141.10 nm | 2.95E+05 Avg Radiance [p/s/cm2/sr] |  |  | 97.2% | 3 days |  |  |  |  |
| CCCCCC(CCC)C(=O)OCCCCCCC(O)(CCCCCCOC(=O)C(CCC)CCCCC)CCCCN(CCC)CCC (centres unmarked) [CL4F 7-3] | 0 week | 5 weeks | 5 weeks |  |  | 3.43E+05 Avg Radiance [p/s/cm2/sr] |  |  | 0.025 | 133.90 nm | 6.64E+05 Avg Radiance [p/s/cm2/sr] |  |  | 98.1% |  | 0 day days |  |  |  |
| CCCCCC(CCCC)C(=O)OCCCCCCC(O)(CCCCCCOC(=O)C(CCCC)CCCCC)CCCCN(CCC)CCC (centres unmarked) [CL4F 7-4] | 0 week | 5 weeks | 5 weeks | 1 week weeks |  | 5.05E+06 Avg Radiance [p/s/cm2/sr] |  |  | 0.032 | 113.50 nm | 7.43E+06 Avg Radiance [p/s/cm2/sr] |  |  | 98.8% |  |  | higher Fluc activity |  |  |
| CCCCCC(CCCCC)C(=O)OCCCCCCC(O)(CCCCCCOC(=O)C(CCCCC)CCCCC)CCCCN(CCC)CCC [CL4F 7-5] | 1 week | 2 weeks | 5 weeks | 1 week weeks |  | 4.56E+07 Avg Radiance [p/s/cm2/sr] | 0.021 | 120.20 nm | 0.057 | 109.80 nm | 1.47E+07 Avg Radiance [p/s/cm2/sr] | 35.7% | 100.1% | 99.9% |  |  | higher Fluc activity |  |  |
| CCCCCCC(CCCCC)C(=O)OCCCCCCC(O)(CCCCCCOC(=O)C(CCCCC)CCCCCC)CCCCN(CCC)CCC (centres unmarked) [CL4F 8-5] | 1 week | 5 weeks | 5 weeks | 5 weeks |  | 4.80E+07 Avg Radiance [p/s/cm2/sr] | 0.034 | 103.40 nm | 0.043 | 94.65 nm | 1.45E+07 Avg Radiance [p/s/cm2/sr] |  | 99.7% | 99.1% |  |  | higher Fluc activity | higher knockdown activity | 0.38 |
| CCCCCCCC(CCCC)C(=O)OCCCCCCC(O)(CCCCCCOC(=O)C(CCCC)CCCCCCC)CCCCN(CCC)CCC (centres unmarked) [CL4F 9-4] | 1 week | 5 weeks | 5 weeks | 1 week weeks |  | 2.55E+07 Avg Radiance [p/s/cm2/sr] |  |  | 0.002 | 95.29 nm | 8.69E+06 Avg Radiance [p/s/cm2/sr] |  |  | 99.1% |  |  | higher Fluc activity |  |  |
| CCCCCCCC(CCCCCC)C(=O)OCCCCCCC(O)(CCCCCCOC(=O)C(CCCCCC)CCCCCCC)CCCCN(CCC)CCC (centres unmarked) [CL4F 9-6] | 1 week | 5 weeks | 5 weeks | 5 weeks |  | 9.61E+07 Avg Radiance [p/s/cm2/sr] |  |  | 0.021 | 89.18 nm | 3.89E+06 Avg Radiance [p/s/cm2/sr] |  |  | 99.1% |  |  |  |  |  |
| CCCCCCCCCCCCCCCC(=O)OCCCCCCC(O)(CCCCCCOC(=O)CCCCCCCCCCCCCCC)CCCCN(CCC)CCC [CL4F 16-0] |  |  |  |  | Does not meet the criteria for “good” at production | 2.32E+04 Avg Radiance [p/s/cm2/sr] |  |  | 0.225 | 158.30 nm | 2.83E+05 Avg Radiance [p/s/cm2/sr] |  |  | 86.2% |  |  |  |  |  |
| CCCCC(CC)C(=O)OCCCCCCC(O)(CCCCCCOC(=O)C(CC)CCCC)CCCCOC(=O)C1CCN(C)CC1 (centres unmarked) [CL15F 6-2] |  |  |  |  | Does not meet the criteria for “good” at production |  | 0.534 | 390.7 nm |  |  |  |  | 100.4% |  |  |  |  |  | 1.87 |
